Experimental data taken from PubChem BioAssay (NCI).
“And” between values parts separate entries of the source, which are not always exact repeats. Equal entries are not always repeated.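 How tested: cells in 96-well plates exposed to compound for 48 hours at five concentrations. GI50 marks 50% less growth. The concentration for full growth arrest is given as TGI.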 Where a SMILES comes first, the peptide text is derived from it. The star is where a group is joined. Boc = CC(C)(C)OC(=O)*

Key:
Assay in all cases: growth of human tumour cells (NCI), 48 h
MALME-3M melanoma = system: MALME-3M melanoma
SNB-19 CNS = system: SNB-19 CNS
MCF7 breast = system: MCF7 breast
SF-268 CNS = system: SF-268 CNS
SR leukemia = system: SR leukemia
SN12C renal = system: SN12C renal
UO-31 renal = system: UO-31 renal
SW-620 colon = system: SW-620 colon
SF-295 CNS = system: SF-295 CNS
A498 renal = system: A498 renal
HOP-92 NSCLC = system: HOP-92 NSCLC
MDA-N = system: MDA-N
NCI-H226 lung = system: NCI-H226 lung

SMILES	TGI (MALME-3M melanoma) [µM]	TGI (SNB-19 CNS) [µM]	TGI (MCF7 breast) [µM]	TGI (SF-268 CNS) [µM]	TGI (SR leukemia) [µM]	TGI (SN12C renal) [µM]	TGI (UO-31 renal) [µM]	TGI (SW-620 colon)	GI50 (MALME-3M melanoma)	GI50 (SF-295 CNS)	TGI (SF-295 CNS)	GI50 (A498 renal)	TGI (A498 renal)	GI50 (HOP-92 NSCLC) [µM]	GI50 (SN12C renal)	GI50 (MDA-N)	TGI (MDA-N)	GI50 (NCI-H226 lung)	TGI (NCI-H226 lung)	TGI (HOP-92 NSCLC) [µM]
CCCCn1c(C)c(C)c2c1NN=C(C#N)S2(=O)=O	> 100	> 100	> 100	> 100	> 100	> 100	> 100	> 100 µM	–	–	–	–	–	–	–	–	–	–	–	–
CC[C@@]1(O)C(=O)OCc2c1cc1n(c2=O)Cc2c-1nc1ccccc1c2C=Nc1ccc(N[C@@H]2c3cc4c(cc3[C@@H](c3cc(OC)c(O)c(OC)c3)[C@H]3C(=O)OC[C@@H]32)OCO4)cc1	–	> 100	–	> 100	28.2	–	1.52	55.7 µM and > 100 µM	0.676 µM and 0.155 µM	0.0619 µM and 0.0503 µM	8.02 µM and 15.9 µM	0.21 µM and 0.0448 µM	1.72 µM and 0.261 µM	0.0258	0.0291 µM and 0.0101 µM	0.351 µM and 0.0613 µM	27.6 µM and 3.4 µM	0.0483 µM and 0.0179 µM	2.71 µM and 0.308 µM	–
COc1ccccc1-c1n[nH]c(-c2ccccc2O)n1	–	> 100	> 100	> 100	–	> 100	> 100	> 100 µM	–	–	> 100 µM	–	> 100 µM	–	–	–	> 100 µM	–	> 100 µM	> 100
CC(=O)N1c2ccccc2C2=NN=C(N(C)C)SC21 (configuration not stated)	12.9	23.5	14.9	16	21.2	6.93	9.89	20 µM	–	–	8.16 µM	–	11.7 µM	–	–	–	19.7 µM	–	19.5 µM	–
COc1ccc(-c2cc(-c3ccccc3)c3c(n2)-c2ccccc2NC(=O)C3)cc1	94.1	> 100	> 100	> 100	–	> 100	> 100	> 100 µM	–	–	> 100 µM	–	> 100 µM	–	–	–	> 100 µM	–	> 100 µM	> 100
O=c1[nH]nc(Cc2ccccc2)n1N=C1CCCCC1	> 100	> 100	> 100	> 100	–	> 100	> 100	> 100 µM	–	–	> 100 µM	–	> 100 µM	–	–	–	> 100 µM	–	> 100 µM	> 100
Brc1nc2c3ccccc3ncn2c1Br	33.2	> 100	–	> 100	> 100	> 100	> 100	> 100 µM	–	–	> 100 µM	–	> 100 µM	–	–	–	–	–	> 100 µM	76.5
CC(C)(C)c1ccc(Oc2ccc(C#N)c(C#N)c2)c(C(C)(C)C)c1	> 100	> 100	–	> 100	40.3	> 100	> 77.7	> 100 µM	–	–	> 100 µM	–	> 100 µM	–	–	–	–	–	> 100 µM	> 100
COC(=O)CC[N+]1([O-])CC1	> 100	> 100	> 100	> 100	> 100	> 100	> 100	> 100 µM	–	–	> 100 µM	–	> 100 µM	–	–	–	–	–	> 100 µM	> 100
CN(O)C(=O)c1ccc(OCc2cccc(Cl)c2)cc1	–	> 100	> 100	> 100	> 72.4	> 95.1	> 66.5	> 100 µM	–	–	> 82.8 µM	–	> 100 µM	–	–	–	> 100 µM	–	> 100 µM	> 100
CC1=NN(c2cccc(Cl)c2)C(=N/c2nc3ccccc3s2)/C1=C\c1ccccc1O	–	–	> 100	78.8	77.3	–	> 100	> 100 µM	–	–	86.2 µM	–	52.4 µM	–	–	–	93.5 µM	–	87.8 µM	83.5
CC12CC(=O)OC(Cc3ccccc31)O2 (configuration not stated)	> 100	> 100	–	> 100	> 100	> 100	> 100	> 100 µM	–	–	> 100 µM	–	–	–	–	–	–	–	> 100 µM	> 100
COc1nc(N)nc2c1n(C)c[n+]2C	> 100	> 100	–	> 100	–	> 100	> 100	> 100 µM	–	–	> 100 µM	–	> 100 µM	–	–	–	> 100 µM	–	> 100 µM	> 100
COc1ccc2c(c1)nc1n2C(c2c(F)cccc2F)SC1 (configuration not stated)	–	> 100	> 100	> 100	> 100	> 100	> 100	> 100 µM	–	–	> 100 µM	–	> 100 µM	–	–	–	> 100 µM	–	> 100 µM	> 100
Nc1c(O)c2c(c(O)c1Cl)C(=O)C=CC2=O	0.894	14.2	3.51	26.3	–	13.7	24.5	9.93 µM	–	–	6.94 µM	–	27.3 µM	–	–	–	3.24 µM	–	34.3 µM	31.3
CN(C(=O)C12C3C4C1C1C2C3C41C(=O)O)C(C)(C)C (configuration not stated)	–	> 100	> 100	> 100	> 100	> 100	> 100	> 100 µM	–	–	> 100 µM	–	> 100 µM	–	–	–	> 100 µM	–	–	> 100
COC(=O)C(Cc1c[nH]c2ccccc12)NC(=O)C(Cc1c[nH]c2ccccc12)NC(=O)C(Cc1c[nH]c2ccccc12)NC(=O)C(Cc1c[nH]c2ccccc12)NC(=O)C(Cc1c[nH]c2ccccc12)NC(=O)OC(C)(C)C (configuration not stated) (Boc-WWWWW-OMe; configuration not given here)	> 100	> 100	> 100	> 100	> 100	> 100	> 100	> 100 µM	–	–	–	–	–	–	–	–	> 100 µM	–	> 100 µM	–
N#CC12CCC(O)C(CC1)C2=O (configuration not stated)	> 100	> 100	–	> 100	77.3	> 100	> 100	–	–	–	> 100 µM	–	> 100 µM	–	–	–	–	–	> 100 µM	–
